One assay has as its system Ileitis (9 yrs duration). Briefly: Improvement of ileitis in patients given L-glutamine alone or L-glutamine/PAK. The class given is in vivo. The text has this: (§1) [table] While the compositions of the invention have been tested on patients suffering from disorders affecting the intestinal mucosa, the methods of the invention are appropriate for use in treating other diseases wherein stimulation of cell growth or repair of cells with natural rapid turn-over is desirable. Such diseases include, but are not limited to, leaky gut syndrome and other diseases of maldigestion, chronic fatigue syndrome, fibromyalgia, diabetes, thyroiditis and chronic viral disease. The combination therapy described herein will, by enhancing the growth and the repair of intestinal cells, increase the ability of the intestinal wall to reject and neutralize parasites and inhibit overgrowth of fungal organisms.

The next assay deals with IBS (6 yrs duration). The experiment in a line: Improvement of IBS in patients given L-glutamine alone or L-glutamine/PAK. The class given is in vivo.
Source text: as §1

With `NC(=O)CC[C@H](N)C(=O)O` [L-glutamine], the “percent of improvement upon administration of the L-glutamine alone” value with Ileitis (9 yrs duration) (dose 3 gm L-glutamine) is listed as 5%; with Ileitis (9 yrs duration) (dose 15 gm L-glutamine), 20%; with Ileitis (9 yrs duration) (dose 30 gm L-glutamine), 50%; in the assay with Ileitis (9 yrs duration) (dose 60 gm L-glutamine), 90%; in the assay with IBS (6 yrs duration) (dose 3 gm L-glutamine) it was “none”; in the assay with IBS (6 yrs duration) (dose 15 gm L-glutamine), 25%. Besides, the “percent of improvement upon administration of the L-glutamine alone” value was 45% in the assay with IBS (6 yrs duration) (dose 30 gm L-glutamine) and 85% in the assay with IBS (6 yrs duration) (dose 60 gm L-glutamine).

The values are drawn from patent US20020188010A1, “Compositions of matter containing L-glutamine and pyridoxal-alpha-ketoglutarate” (priority 2001, published 2002).
